Like-named read-outs stand apart in the source and are kept apart here.
Experiments:
Type in all cases: in vivo
[1] = test system: Plutella xylostella; test: whole plant or invertebrate; conditions: Plutella xylostella, read-out: Plutella xylostella Mortality (%) 500 ppm
Summary of the method: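 Leaf immersion feeding test: 2nd-instar larvae (about 35 per vessel, 3 replicates) kept at 28° C. on 1.0 cm cabbage discs soaked 5 s in a 500 ppm solution with 0.05% Tween-80. Mortality after 24 h of exposure, calculated relative to live larvae in the Tween-80 control.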

[2] = test system: Spodoptera exigua; test: whole plant or invertebrate; conditions: Spodoptera exigua, 24 h, read-out: Spodoptera exigua Mortality (%) 500 ppm
Summary of the method: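 Leaf immersion feeding: second-instar larvae (about 35 per vessel, triplicate) kept at 28° C on discs treated with 500 ppm test solution in 0.05% Tween-80. Mortality at 24 h, calculated relative to surviving larvae in the solvent control.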

[3] = test system: Aphis craccivora; test: whole plant or invertebrate; conditions: Aphis craccivora, 24 h, read-out: Aphis craccivora Mortality (%) 500 ppm
Summary of the method: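 Mortality scored 24 h after treatment as the reduction in live aphids versus a 0.05% Tween-80 control; three replicates, 23° C. Treatment was a 5 s immersion of wingless adults on bean sprouts in 500 ppm test solution containing 0.05% Tween-80, followed by air-drying.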

[4] = test system: Solenopsis invicta; test: whole plant or invertebrate; conditions: Solenopsis invicta, water test tube poison-feeding
Summary of the method: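 Mortality (%) of Solenopsis invicta, computed against live counts in control tubes, was recorded 24 h and 72 h after treatment at 25 °C. Compound was offered by oral feeding in test tubes at 100 ppm, diluted from a 10 g/L DMSO stock into water with 5% honey and 0.05% Tween-80.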

[5] = test system: Bombyx mori L.; test: Toxicity test on 2nd-instar larvae of Bombyx mori L., leaf immersion feeding method; conditions: 1000 ppm, 24 hours
Experimental: (1) Toxicity Test on 2nd-Instar Larvae of Bombyx mori L.
Bombyx mori L. is an important economic insect sensitive to pesticides in an agricultural ecosystem, and is also one of the non-target organisms of environmental ecology listed in pesticide registration of China. The 2nd-instar larvae of Bombyx mori L. were used as test objects and tested by using a leaf immersion feeding method.
Operation process: Samples were weighed accurately, and respectively added with 200 μL of dimethyl sulfoxide to prepare 10 g/L mother liquor which was diluted into a concentration of 1000 ppm with an aqueous solution containing 0.05% of Tween-80 during the test. Young cotyledons of mulberries were collected, washed and air-dried, immersed in a liquid medicine, taken out after 5 seconds, naturally air-dryed, and then transferred into a clean vessel. About 35 2nd -instar larvae of Bombyx mori L. were put into the vessel and fed at a constant temperature of 25° C. Each concentration was repeated 3 times, and an aqueous solution containing 0.05% of Tween-80 was used as a control group. After being treated for 24 hours, a number of dead Bombyx mori L. was counted, and a mortality (%) was calculated according to a formula that mortality (%)=(number of live larvae in the control group −number of treated live larvae)/number of live larvae in the control group * 100%.

[6] = test system: Apis cernan; test: Toxicity test on adult worker bees of Apis cernan, small beaker method; conditions: 500 ppm, 48 hours
Experimental: (2) Toxicity Test on Adult Worker Bees of Apis cernan.
Adult worker bees of Apis cernan having the same size were selected for test. The worker bees were collected from beekeeping boxes in the daystart of the test day and tested by using a small beaker method.
Operation process: A small amount of absorbent cotton was put into a 5 mL small beaker, 5 mL of a test liquid medicine (a concentration of 500 ppm) was dropped into the absorbent cotton, and stirred gently to make the absorbent cotton completely wet but not leached obviously, then the small beaker was put into a 500 mL large beaker, then 15 worker bees were put into the large beaker, and finally the large beaker was sealed with gauze. After treatment, the large beaker was placed in a dark room of an artificial climate box. After taking the medicine for 48 hours, a number of live and dead worker bees were investigated.

[7] = 24 h, read-out: Solenopsis invicta Mortality (%) 100 ppm 24 h, 100 ppm, 24 h
[8] = 72 h, read-out: Solenopsis invicta Mortality (%) 100 ppm 72 h, 100 ppm, 72 h

Row | Compound | mortality at 500 ppm [1] [%] | mortality at 500 ppm [2] [%] | mortality at 500 ppm [3] [%] | mortality at 100 ppm [4, 7] [%] | mortality at 100 ppm [4, 8] [%] | Toxicity determination Bombyx mori L. Mortality (%) [5] [%] | Toxicity determination Apis cernan Mortality (%) [6] [%]
1 | CC1(C)Nc2cc(C#N)nn2-c2ccccc21 [Compound A1, 5,5-dimethyl-4,5-dihydropyrazole[1,5-α]quinazoline-2-cyano] | 95 | 90 | 100 | 20 | 87 | 9 | 12
2 | CC(=O)N1c2c(Br)c(C#N)nn2-c2ccccc2C1(C)C [Compound A4] | 86 | 100 | 100 | 20 | 87 | 10 | 8
3 | CC(=O)c1nn2c(c1Br)NC(C)(C)c1ccccc1-2 [Compound A5] | 100 | 100 | 100 | 34 | 100 | 2 | 9
4 | CC1(C)Nc2c(Br)c(C(=O)N3CCCCC3)nn2-c2ccccc21 [Compound A7] | 100 | 100 | 100 | 20 | 100 | 6 | 6
5 | CC1(C)Nc2c([S+]([O-])C(F)(F)F)c(C#N)nn2-c2ccccc21 (stereo not shown) [Compound A8] | 100 | 90 | 100 | 26 | 93 | 12 | 10
6 | Nc1ccc2c(c1)-n1nc(C(F)(F)F)cc1NC2(C(F)(F)F)C(F)(F)F [Compound A10] | 86 | 100 | 100 | 20 | 87 | 15 | 12
7 | Nc1ccc2c(c1)-n1nc(C(F)(F)F)c(-c3ccc(F)cc3)c1NC2(C(F)(F)F)C(F)(F)F [Compound A12] | 100 | 100 | 100 | 44 | 100 | 13 | 12
8 | Nc1ccc2c(c1)-n1nc(C(F)(F)F)c(SC(F)(F)F)c1NC2(C(F)(F)F)C(F)(F)F [Compound A13] | 100 | 100 | 100 | 20 | 100 | 17 | 17
9 | CC1(C)Nc2c(N)c(C#N)nn2-c2ccccc21 [Compound A15] | 100 | 100 | 100 | 24 | 100 | 8 | 5
10 | CNC(=O)Nc1c(C#N)nn2c1NC(C)(C)c1ccccc1-2 [Compound A19] | 100 | 100 | 100 | 20 | 100 | 7 | 5

From patent US11401271B2, “Fused heterocyclic compound, pyrazole-ring-containing fused heterocyclic compound, agricultural composition containing thereof, and method of using the composition” (SOUTH CHINA AGRICULTURAL UNIVERSITY, priority 2017, dated 2022)
